Measured values taken from patent publication US7868004B2, “Menthane carboxamide derivatives having cooling properties” (Givaudan S.A., priority 2005, dated 2011).

Key:
Assay type in all cases: in vivo
panelists = assay: experiment on cooling intensity: panelists taste solutions and compare with menthol at 2 ppm; details: tasted by a small group of panelists; reference menthol at 2 ppm
mouth [1] = assay: Application in mouthwash: cooling perception in the mouth; details: mouthwash with 10 mL of 1% solution in alcohol per liter, 30 mL swished, gargled and spit out
Description: [table] All the ingredients are mixed. 30 mL of obtained solution is put in the mouth, swished around, gargled and spit out. […] The cooling perception lasts for several hours

mouth [2] = assay: Application in toothpaste: cooling perception in the mouth; details: toothgel with 1.500 g of 2% solution in PG per 100 g, teeth brushed, mouth rinsed with water
Source text: [table] The chemicals are mixed in the toothgel, a piece of toothgel is put on a toothbrush and a panelist's teeth are brushed. The mouth is rinsed with water and the water is spit out. […] The cooling perception lasts for several hours.

SMILES | Concentration of solution having a cooling intensity similar or slightly higher than that of a solution of menthol at 2 ppm (panelists) | further results
CC1CCC(C(C)C)C(C(=O)Nc2cccc3ocnc23)C1 (stereo not shown) [Example 1, N-benzooxazol-4-yl 3-p-menthanecarboxamide] | 0.02 ppm | duration of cooling perception (mouth [1]): several hours; cooling sensation (mouth [1]; every area of the mouth and lips): intense cooling
CC1CCC(C(C)C)C(O)C1 (stereo not shown) [Example 1-Menthol, 1-Menthol, reference compound] | 2.0 ppm | 
CC1CCC(C(C)C)C(C(=O)Nc2ccc3ncsc3c2)C1 (stereo not shown) [Example 3, N-benzothiazol-6-yl menthanecarboxamide] | 0.3 ppm | 
CC1CCC(C(C)C)C(C(=O)Nc2ccc(-n3cncn3)cc2)C1 (stereo not shown) [Example 4, N-4-([1,2,4]triazol-1-yl)-phenyl-3-p-menthanecarboxamide] | 0.02 ppm | 
CC1CCC(C(C)C)C(C(=O)Nc2ccc(-c3cnco3)cc2)C1 (stereo not shown) [Example 5, N-4-(oxazol-5-yl)-phenyl-3-p-menthanecarboxamide] | 0.5 ppm | 
CC1CCC(C(C)C)C(C(=O)Nc2cccc(-c3cnco3)c2)C1 (stereo not shown) [Example 6, N-3-(oxazol-5-yl)-phenyl-3-p-menthanecarboxamide] | 0.1 ppm | duration of cooling perception (mouth [2]): several hours; cooling sensation (mouth [2]; all areas of the mouth): intense cooling sensation
CC1CCC(C(C)C)C(C(=O)Nc2ccc(N3CCOCC3)cc2)C1 (stereo not shown) [N-4-(morpholin-4-yl)-phenyl 3-p-menthanecarboxamide] | 0.2 ppm | 
CC1CCC(C(C)C)C(C(=O)Nc2ccc(-n3cccn3)cc2)C1 (stereo not shown) [N-4-(pyrazol-1-yl)-phenyl-3-p-menthanecarboxamide] | 0.02 ppm | 
CC1CCC(C(C)C)C(C(=O)Nc2ccc3c(c2)OCO3)C1 (stereo not shown) [N-benzo[1,3]dioxol-5-yl-3-p-menthanecarboxamide] | 0.02 ppm | 
